Results: US20230072683A1, “PYRIDO-PYRIMIDIN DERIVATIVES AND PHARMACEUTICAL COMPOSITION, FOR USE IN PREVENTING OR TREATING PI3 KINASE RELATED DISEASES, COMPRISING SAME AS ACTIVE INGREDIENT” (BORYUNG PHARMACEUTICAL CO., LTD, priority 2019, published 2023)

Columns and labels:
DNA-PK(h) = DNA-PK(h) (Homo sapiens, UniProt P78527); assay: Evaluation of inhibitory activity against DNA-PK (HTRF kinase assay, GST-cMyc-p53 substrate); type: biochemical; conditions: for inhibition at 0.01 µM: compound concentration 0.01 μM, read-out: EXP_VALUE(% Inhibition) DNA-PK(h) 0.01 μM; for inhibition at 0.1 µM: compound concentration 0.1 μM, read-out: EXP_VALUE(% Inhibition) DNA-PK(h) 0.1 μM
In short: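 Human DNA-PK with 50 μM GST-cMyc-p53 substrate; reaction started with Mg/ATP, run 30 min at room temperature, stopped with EDTA. Phospho-Ser15 p53 detected by HTRF (Eu anti-phospho-Ser15, d2 anti-GST), signal = 10000×(Em 665/Em 620).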

[1] = molecular target: PI3K-δ (PI3K(p1108/p857) (h)) (Homo sapiens, UniProt O00329); assay: Evaluation of inhibitory activity against PI3K-δ (HTRF kinase assay); type: biochemical; conditions: for inhibition at 0.01 µM: compound concentration 0.01 μM, read-out: EXP_VALUE(% Inhibition) PI3K-δ 0.01 μM; for inhibition at 0.1 µM: compound concentration 0.1 μM, read-out: EXP_VALUE(% Inhibition) PI3K-δ 0.1 μM
In short: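 HTRF read-out (665/620 nm ratio ×10000) used Eu-labelled anti-GST, GST-tagged GRP1 PH domain and streptavidin-allophycocyanin after EDTA/PIP3 stop.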

Sequence of PI3K-δ (PI3K(p1108/p857) (h)) (O00329 whole entry, the tested form may be a part): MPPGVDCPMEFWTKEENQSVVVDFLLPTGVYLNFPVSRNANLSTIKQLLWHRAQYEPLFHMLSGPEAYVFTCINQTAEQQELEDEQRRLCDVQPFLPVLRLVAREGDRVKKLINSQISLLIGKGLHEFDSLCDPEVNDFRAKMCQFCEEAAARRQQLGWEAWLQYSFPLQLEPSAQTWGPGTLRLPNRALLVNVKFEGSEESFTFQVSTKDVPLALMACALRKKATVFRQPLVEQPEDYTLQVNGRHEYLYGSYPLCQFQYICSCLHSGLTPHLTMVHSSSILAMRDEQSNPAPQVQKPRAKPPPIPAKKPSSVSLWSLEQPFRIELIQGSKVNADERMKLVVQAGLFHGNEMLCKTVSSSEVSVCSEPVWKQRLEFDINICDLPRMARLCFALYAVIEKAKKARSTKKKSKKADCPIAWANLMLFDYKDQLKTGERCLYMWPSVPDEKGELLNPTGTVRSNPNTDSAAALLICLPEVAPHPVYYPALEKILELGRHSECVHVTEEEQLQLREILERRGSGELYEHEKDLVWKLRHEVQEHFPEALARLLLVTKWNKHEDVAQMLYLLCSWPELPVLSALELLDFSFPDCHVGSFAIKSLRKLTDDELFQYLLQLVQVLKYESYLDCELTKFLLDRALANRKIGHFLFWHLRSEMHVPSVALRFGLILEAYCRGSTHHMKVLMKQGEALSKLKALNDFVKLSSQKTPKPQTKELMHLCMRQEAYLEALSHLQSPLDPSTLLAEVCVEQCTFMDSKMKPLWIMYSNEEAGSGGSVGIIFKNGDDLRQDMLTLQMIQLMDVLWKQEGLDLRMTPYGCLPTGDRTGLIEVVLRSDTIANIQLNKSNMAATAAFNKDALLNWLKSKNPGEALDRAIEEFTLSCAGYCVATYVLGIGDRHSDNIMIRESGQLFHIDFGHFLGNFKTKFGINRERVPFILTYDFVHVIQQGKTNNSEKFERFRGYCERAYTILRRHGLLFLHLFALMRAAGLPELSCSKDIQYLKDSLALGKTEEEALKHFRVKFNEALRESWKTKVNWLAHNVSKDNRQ
Sequence of PI3K-δ (PI3K(p1108/p857) (h)) (P27986 whole entry partner, the tested form may be a part): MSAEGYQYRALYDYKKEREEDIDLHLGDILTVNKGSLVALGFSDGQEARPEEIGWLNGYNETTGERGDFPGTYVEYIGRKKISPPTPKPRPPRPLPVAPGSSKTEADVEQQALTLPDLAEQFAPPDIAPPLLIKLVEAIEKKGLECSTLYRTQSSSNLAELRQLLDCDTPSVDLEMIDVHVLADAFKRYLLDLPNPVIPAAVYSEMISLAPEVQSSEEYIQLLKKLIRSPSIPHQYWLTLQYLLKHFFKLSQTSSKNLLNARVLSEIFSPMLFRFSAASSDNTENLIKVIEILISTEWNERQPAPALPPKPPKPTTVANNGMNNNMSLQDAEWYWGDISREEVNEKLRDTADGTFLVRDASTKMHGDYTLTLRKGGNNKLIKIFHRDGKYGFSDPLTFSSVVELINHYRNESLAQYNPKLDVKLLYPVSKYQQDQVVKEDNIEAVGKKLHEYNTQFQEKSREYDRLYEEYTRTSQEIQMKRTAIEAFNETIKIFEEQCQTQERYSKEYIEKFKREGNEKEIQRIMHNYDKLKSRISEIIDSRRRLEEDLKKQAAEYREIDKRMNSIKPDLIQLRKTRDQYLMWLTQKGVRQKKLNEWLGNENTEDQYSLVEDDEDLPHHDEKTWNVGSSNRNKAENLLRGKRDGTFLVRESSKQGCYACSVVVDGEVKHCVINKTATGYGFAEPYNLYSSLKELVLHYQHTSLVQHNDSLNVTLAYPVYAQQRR

SMILES | inhibition at 0.01 µM (DNA-PK(h)) [%] | inhibition at 0.1 µM (DNA-PK(h)) [%] | inhibition at 0.01 µM [1] [%] | inhibition at 0.1 µM [1] [%]
C[C@H](Nc1ncnc2[nH]ccc(=O)c12)c1c(Cl)c2cccc(-c3ccc(C(=O)N(C)C)cc3)c2c(=O)n1-c1ccccc1 [Example 139, (S)-4-(4-chloro-1-oxo-3-(1-((5-oxo-5,8-dihydropyrido[2,3-d]pyrimidin-4-yl)amino)ethyl)-2-phenyl-1,2-dihydroisoquinolin-8-yl)-N, N-dimethylbenzamide] | 74 | 96 | 51 | 94
C[C@H](Nc1ncnc2[nH]ccc(=O)c12)c1c(Cl)c2cccc(-c3cc(Cl)ccc3F)c2c(=O)n1-c1ccccc1 [Example 140, (S)-4-((1-(4-chloro-8-(5-chloro-2-fluorophenyl)-1-oxo-2-phenyl-1,2-dihydroisoquinolin-3-yl)ethyl)amino)pyrido[2,3-d]pyrimidin-5(8H)-one] | 38 | 84 | 42 | 87
C[C@H](Nc1ncnc2[nH]ccc(=O)c12)c1c(Cl)c2cccc(-c3ccc(C4CC4)cc3)c2c(=O)n1-c1ccccc1 [Example 141, (S)-4-((1-(4-chloro-8-(4-cyclopropylphenyl)-1-oxo-2-phenyl-1,2-dihydroisoquinolin-3-yl)ethyl)amino)pyrido[2,3-d]pyrimidin-5(8H)-one] | 31 | 74 | 39 | 79
C=Cc1cccc2c(Cl)c([C@H](C)Nc3ncnc4[nH]ccc(=O)c34)n(-c3ccccc3)c(=O)c12 [Example 142, (S)-4-((1-(4-chloro-1-oxo-2-phenyl-8-vinyl-1,2-dihydroisoquinolin-3-yl)ethyl)amino)pyrido[2,3-d]pyrimidin-5(8H)-one] | 50 | 87 | 67 | 97
CSc1ccc(-c2cccc3c(Cl)c([C@H](C)Nc4ncnc5[nH]ccc(=O)c45)n(-c4ccccc4)c(=O)c23)cc1 [Example 143, (S)-4-((1-(4-chloro-8-(4-(methylthio)phenyl)-1-oxo-2-phenyl-1,2-dihydroisoquinolin-3-yl)ethyl)amino)pyrido[2,3-d]pyrimidin-5(8H)-one] | 25 | 80 | 48 | 94
C[C@H](Nc1ncnc2[nH]ccc(=O)c12)c1c(Cl)c2cccc(-c3ccc(SC(C)(C)C)cc3)c2c(=O)n1-c1ccccc1 [Example 144, (S)-4-((1-(8-(4-(tert-butylthio)phenyl)-4-chloro-1-oxo-2-phenyl-1,2-dihydroisoquinolin-3-yl)ethyl)amino)pyrido[2,3-d]pyrimidin-5(8H)-one] | 4 | 48 | 17 | 72
C[C@H](Nc1ncnc2[nH]ccc(=O)c12)c1c(Cl)c2cccc(-c3ccc(C(=O)N4CCOCC4)cc3)c2c(=O)n1-c1ccccc1 [Example 145, (S)-4-((1-(4-chloro-8-(4-(morpholin-4-carbonyl)phenyl)-1-oxo-2-phenyl-1,2-dihydroisoquinolin-3-yl)ethyl)amino)pyrido[2,3-d]pyrimidin-5(8H)-one] | 93 |  | 88 | 
C[C@H](Nc1ncnc2[nH]ccc(=O)c12)c1c(Cl)c2cccc(-c3cnc(OCc4ccccc4)nc3)c2c(=O)n1-c1ccccc1 [Example 146, (S)-4-((1-(8-(2-(benzyloxy)pyrimidin-5-yl)-4-chloro-1-oxo-2-phenyl-1,2-dihydroisoquinolin-3-yl)ethyl)amino)pyrido[2,3-d]pyrimidin-5(8H)-one] | 35 |  | 84 | 
C[C@H](Nc1ncnc2[nH]ccc(=O)c12)c1c(Cl)c2cccc(-c3ccc(OCC(F)(F)F)nc3)c2c(=O)n1-c1ccccc1 [Example 147, (S)-4-((1-(4-chloro-1-oxo-2-phenyl-8-(6-(2,2,2-trifluoroethoxy)pyridin-3-yl)-1,2-dihydroisoquinolin-3-yl)ethyl)amino)pyrido[2,3-d]pyrimidin-5(8H)-one] | 48 |  | 69 | 
C[C@H](Nc1ncnc2[nH]ccc(=O)c12)c1c(Cl)c2cccc(-c3ccc(N4CCNCC4)cc3)c2c(=O)n1-c1ccccc1 [Example 148, (S)-4-((1-(4-chloro-1-oxo-2-phenyl-8-(4-(piperazin-1-yl)phenyl)-1,2-dihydroisoquinolin-3-yl)ethyl)amino)pyrido[2,3-d]pyrimidin-5(8H)-one] | 89 |  | 92 | 
COc1cc(-c2cccc3c(Cl)c([C@H](C)Nc4ncnc5c4c(=O)ccn5-c4ccnc(OC)c4)n(-c4ccccc4)c(=O)c23)ccn1 [Example 149, (S)-4-((1-(4-chloro-8-(2-methoxypyridin-4-yl)-1-oxo-2-phenyl-1,2-dihydroisoquinolin-3-yl)ethyl)amino)-8-(2-methoxypyridin-4-yl)pyrido[2,3-d]pyrimidin-5(8H)-one] | 7 |  | 2 | 
COc1cc(-c2cccc3c(Cl)c([C@H](C)Nc4ncnc5[nH]ccc(=O)c45)n(-c4ccccc4)c(=O)c23)ccn1 [Example 150, (S)-4-((1-(4-chloro-8-(2-methoxypyridin-4-yl)-1-oxo-2-phenyl-1,2-dihydroisoquinolin-3-yl)ethyl)amino)pyrido[2,3-d]pyrimidin-5(8H)-one] | 93 |  | 105 | 
CCCSc1ccc(-c2cccc3c(Cl)c([C@H](C)Nc4ncnc5[nH]ccc(=O)c45)n(-c4ccccc4)c(=O)c23)cc1 [Example 151, (S)-4-((1-(4-chloro-1-oxo-2-phenyl-8-(4-(propylthio)phenyl)-1,2-dihydroisoquinolin-3-yl)ethyl)amino)pyrido[2,3-d]pyrimidin-5(8H)-one] | 23 |  | 44 | 
C[C@H](Nc1ncnc2[nH]ccc(=O)c12)c1c(Cl)c2cccc(-c3ccc(SC4CC4)cc3)c2c(=O)n1-c1ccccc1 [Example 152, (S)-4-((1-(4-chloro-8-(4-(cyclopropylthio)phenyl)-1-oxo-2-phenyl-1,2-dihydroisoquinolin-3-yl)ethyl)amino)pyrido[2,3-d]pyrimidin-5(8H)-one] | 36 |  | 58 | 
C[C@H](Nc1ncnc2[nH]ccc(=O)c12)c1c(Cl)c2cccc(-c3cnc(C(F)(F)F)nc3)c2c(=O)n1-c1ccccc1 [Example 153, (S)-4-((1-(4-chloro-1-oxo-2-phenyl-8-(2-(trifluoromethyl)pyrimidin-5-yl)-1,2-dihydroisoquinolin-3-yl)ethyl)amino)pyrido[2,3-d]pyrimidin-5(8H)-one] | 46 |  | 77 | 
COc1cc(-c2cccc3c(Cl)c([C@H](C)Nc4ncnc5[nH]ccc(=O)c45)n(-c4ccccc4)c(=O)c23)cc(OC)c1F [Example 154, (S)-4-((1-(4-chloro-8-(4-fluoro-3,5-dimethoxyphenyl)-1-oxo-2-phenyl-1,2-dihydroisoquinolin-3-yl)ethyl)amino)pyrido[2,3-d]pyrimidin-5(8H)-one] | 71 |  | 89 | 
COc1ccc(-c2cccc3c(Cl)c([C@H](C)Nc4ncnc5[nH]ccc(=O)c45)n(-c4ccccc4)c(=O)c23)cc1OC [Example 155, (S)-4-((1-(4-chloro-8-(3,4-dimethoxyphenyl)-1-oxo-2-phenyl-1,2-dihydroisoquinolin-3-yl)ethyl)amino)pyrido[2,3-d]pyrimidin-5(8H)-one] | 87 |  | 95 | 
C[C@H](Nc1ncnc2[nH]ccc(=O)c12)c1c(Cl)c2cccc(C3=CCCC3)c2c(=O)n1-c1ccccc1 [Example 156, (S)-4-((1-(4-chloro-8-(cyclopent-1-en-1-yl)-1-oxo-2-phenyl-1,2-dihydroisoquinolin-3-yl)ethyl)amino)pyrido[2,3-d]pyrimidin-5(8H)-one] | 42 |  | 82 | 
COc1cc(OC(C)C)cc(-c2cccc3c(Cl)c([C@H](C)Nc4ncnc5[nH]ccc(=O)c45)n(-c4ccccc4)c(=O)c23)c1 [Example 157, (S)-4-((1-(4-chloro-8-(3-isopropoxy-5-methoxyphenyl)-1-oxo-2-phenyl-1,2-dihydroisoquinolin-3-yl)ethyl)amino)pyrido[2,3-d]pyrimidin-5(8H)-one] | 52 |  | 57 | 
COc1cc(OC(F)(F)F)cc(-c2cccc3c(Cl)c([C@H](C)Nc4ncnc5[nH]ccc(=O)c45)n(-c4ccccc4)c(=O)c23)c1 [Example 158, (S)-4-((1-(4-chloro-8-(3-methoxy-5-(trifluoromethoxy)phenyl)-1-oxo-2-phenyl-1,2-dihydroisoquinolin-3-yl)ethyl)amino)pyrido[2,3-d]pyrimidin-5(8H)-one] | 18 |  | 32 | 
COc1cc(-c2cccc3c(Cl)c([C@H](C)Nc4ncnc5[nH]ccc(=O)c45)n(-c4ccccc4)c(=O)c23)ccc1OC(F)(F)F [Example 159, (S)-4-((1-(4-chloro-8-(3-methoxy-4-(trifluoromethoxy)phenyl)-1-oxo-2-phenyl-1,2-dihydroisoquinolin-3-yl)ethyl)amino)pyrido[2,3-d]pyrimidin-5(8H)-one] | 19 |  | 28 | 
